In ChEMBL document CHEMBL3351728, “3-alkoxy-pyrrolo[1,2-b]pyrazolines as selective androgen receptor modulators with ideal physicochemical properties for transdermal administration” (J Med Chem, 2014):
In brackets after ≈: the same amount, converted by molar mass. Activity calls are given as the source filed them. The rule behind the calls is not given here.

Key:
[1] = Skin drug retention by silicone and isopropyl myristate (70:30) containing artificial membranes based skin PAMPA method
[2] = target: T1, Androgen receptor (Homo sapiens) (UniProt P10275); assay: Agonist activity at human androgen receptor expressed in mouse C2C12 cells by androgen-specific response element-driven luciferase reporter gene assay relative to DHT; assay type: cell-based
T1 sequence (whole entry): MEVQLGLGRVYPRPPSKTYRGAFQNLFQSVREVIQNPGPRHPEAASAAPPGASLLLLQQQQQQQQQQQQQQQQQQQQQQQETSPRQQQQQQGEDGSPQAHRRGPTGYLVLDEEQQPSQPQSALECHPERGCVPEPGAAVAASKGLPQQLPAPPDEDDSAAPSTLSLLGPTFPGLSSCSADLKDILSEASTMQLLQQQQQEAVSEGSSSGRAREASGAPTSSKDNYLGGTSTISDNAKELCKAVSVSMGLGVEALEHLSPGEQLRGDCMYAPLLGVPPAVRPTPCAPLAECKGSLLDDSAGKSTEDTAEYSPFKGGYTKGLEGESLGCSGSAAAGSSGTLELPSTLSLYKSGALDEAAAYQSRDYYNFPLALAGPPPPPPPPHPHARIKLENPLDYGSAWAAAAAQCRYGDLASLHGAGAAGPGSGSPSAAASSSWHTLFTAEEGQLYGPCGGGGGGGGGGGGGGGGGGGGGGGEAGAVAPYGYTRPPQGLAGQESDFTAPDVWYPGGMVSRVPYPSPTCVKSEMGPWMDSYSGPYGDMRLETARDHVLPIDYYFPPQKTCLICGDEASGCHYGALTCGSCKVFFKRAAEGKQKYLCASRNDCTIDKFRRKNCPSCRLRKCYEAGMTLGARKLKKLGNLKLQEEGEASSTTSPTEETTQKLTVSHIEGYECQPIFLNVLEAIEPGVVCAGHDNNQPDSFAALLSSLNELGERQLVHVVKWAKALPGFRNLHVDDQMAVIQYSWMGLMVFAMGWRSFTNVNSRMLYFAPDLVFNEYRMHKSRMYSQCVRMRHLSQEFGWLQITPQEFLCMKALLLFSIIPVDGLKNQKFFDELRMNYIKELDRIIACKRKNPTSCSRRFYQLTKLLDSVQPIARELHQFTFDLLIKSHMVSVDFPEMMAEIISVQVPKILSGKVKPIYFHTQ

[3] = Lipophilicity, logP of the compound; assay type: physicochemical; conditions: octanol/water
Androgen receptor [4] = target: T2, Androgen receptor (Homo sapiens, UniProt P10275)
T2 sequence (P10275 whole entry): T1 sequence (whole entry)

Zone of skin = assay: Skin permeability in human cadaver skin in Franz diffusion cell system; assay type: ADME
[5] = Thermodynamic solubility of the compound at pH 7.4; assay type: physicochemical; conditions: buffer, read-out: Therm_solubility
[6] = Skin permeability by silicone and isopropyl myristate (70:30) containing artificial membranes based skin PAMPA method; assay type: ADME
Rattus norvegicus [7] = assay: Androgenic activity in orchidectomized rat assessed as stimulation of prostate weight treated subcutaneously once daily for 14 days by Hershberger assay; assay type: organism-based; conditions: Prostate gland, sc, 336 h
Rattus norvegicus [8] = assay: Anabolic activity in orchidectomized rat assessed as stimulation of bulbocavernosus/levator ani muscle weight treated subcutaneously once daily for 14 days by Hershberger assay; assay type: functional; conditions: for ED50: sc, 336 h
[9] = Terminal half life in Wistar rat at 1 mg/kg, iv; assay type: ADME, organism-based; set-up: dose 1 mg/kg, route intravenous; conditions: in vivo, read-out: beta t1/2 (converted)
Estrogen receptor = target: T3, Estrogen receptor (Homo sapiens, UniProt P03372); assay: Binding affinity to estrogen receptor (unknown origin) incubated for 4 hrs
T3 sequence (P03372 whole entry): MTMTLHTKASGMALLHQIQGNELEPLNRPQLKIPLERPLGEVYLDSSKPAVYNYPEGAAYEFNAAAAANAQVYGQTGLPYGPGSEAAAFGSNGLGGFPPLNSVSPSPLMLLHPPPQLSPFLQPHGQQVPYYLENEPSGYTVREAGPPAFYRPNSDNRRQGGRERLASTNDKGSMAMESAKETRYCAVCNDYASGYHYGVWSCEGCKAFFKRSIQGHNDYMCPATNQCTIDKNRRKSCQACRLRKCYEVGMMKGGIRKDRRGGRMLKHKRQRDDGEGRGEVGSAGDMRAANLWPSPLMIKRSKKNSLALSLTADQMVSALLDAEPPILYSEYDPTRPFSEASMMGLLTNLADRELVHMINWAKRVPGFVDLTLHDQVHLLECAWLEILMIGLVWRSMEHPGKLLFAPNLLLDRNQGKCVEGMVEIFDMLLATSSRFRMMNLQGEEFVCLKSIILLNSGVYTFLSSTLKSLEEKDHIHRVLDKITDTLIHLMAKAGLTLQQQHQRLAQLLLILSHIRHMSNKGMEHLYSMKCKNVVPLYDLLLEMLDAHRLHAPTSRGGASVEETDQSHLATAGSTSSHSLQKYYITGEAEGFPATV

Rattus norvegicus [10] = assay: AUC (0 to 48 hrs) in Wistar rat at 0.5 mg/kg, sc; assay type: ADME, organism-based, Plasma; set-up: time < 48 hr, dose 0.5 mg/kg, route subcutaneous; conditions: in vivo
[11] = Volume of distribution in Wistar rat at 1 mg/kg, iv; assay type: ADME, organism-based; set-up: dose 1 mg/kg, route intravenous; conditions: in vivo
Glucocorticoid receptor = target: T4, Glucocorticoid receptor (Homo sapiens, UniProt P04150); assay: Binding affinity to glucocorticoid receptor (unknown origin) incubated for 4 hrs
T4 sequence (P04150 whole entry): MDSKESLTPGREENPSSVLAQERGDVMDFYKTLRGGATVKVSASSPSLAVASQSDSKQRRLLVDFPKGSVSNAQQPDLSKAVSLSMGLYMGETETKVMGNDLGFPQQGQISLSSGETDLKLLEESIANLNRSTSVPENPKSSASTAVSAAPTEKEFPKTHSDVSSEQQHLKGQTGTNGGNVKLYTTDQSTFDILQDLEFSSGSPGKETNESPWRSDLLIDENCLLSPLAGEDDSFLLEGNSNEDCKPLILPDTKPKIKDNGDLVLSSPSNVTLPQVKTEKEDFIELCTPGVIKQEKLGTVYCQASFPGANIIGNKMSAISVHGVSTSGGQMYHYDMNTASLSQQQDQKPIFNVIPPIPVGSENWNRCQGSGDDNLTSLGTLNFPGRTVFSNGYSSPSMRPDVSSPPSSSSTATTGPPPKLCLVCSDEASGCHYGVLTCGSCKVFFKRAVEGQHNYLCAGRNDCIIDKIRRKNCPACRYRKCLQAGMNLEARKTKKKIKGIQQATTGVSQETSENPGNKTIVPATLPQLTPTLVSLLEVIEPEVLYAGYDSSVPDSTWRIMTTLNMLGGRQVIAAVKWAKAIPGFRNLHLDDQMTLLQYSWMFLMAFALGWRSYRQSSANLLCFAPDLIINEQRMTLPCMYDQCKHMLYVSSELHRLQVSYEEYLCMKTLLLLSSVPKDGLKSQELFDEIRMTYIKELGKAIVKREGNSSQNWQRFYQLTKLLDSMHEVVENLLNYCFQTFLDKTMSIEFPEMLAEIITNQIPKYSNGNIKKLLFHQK

[12] = AUC (0 to infinity) in Wistar rat at 1 mg/kg, iv; assay type: ADME, organism-based; set-up: dose 1 mg/kg, route intravenous, time infinity; conditions: plasma
Androgen receptor [13] = target: T2, Androgen receptor; assay: Displacement of [3H]DHT from androgen receptor in human MDA-MB-435 cells after 30 mins; assay type: cell-based
[14] = Cmax in Wistar rat at 0.5 mg/kg, sc; assay type: ADME, organism-based; set-up: dose 0.5 mg/kg, route subcutaneous; conditions: in vivo
Rattus norvegicus [15] = assay: Anabolic activity in orchidectomized rat assessed as stimulation of bulbocavernosus/levator ani muscle weight treated at 0.3 mg/kg, sc once daily for 14 days by Hershberger assay; assay type: functional, organism-based; set-up: dose 0.3 mg/kg
Progesterone receptor = target: T5, Progesterone receptor (Homo sapiens, UniProt P06401); assay: Binding affinity to progesterone receptor (unknown origin) incubated for 4 hrs
T5 sequence (P06401 whole entry): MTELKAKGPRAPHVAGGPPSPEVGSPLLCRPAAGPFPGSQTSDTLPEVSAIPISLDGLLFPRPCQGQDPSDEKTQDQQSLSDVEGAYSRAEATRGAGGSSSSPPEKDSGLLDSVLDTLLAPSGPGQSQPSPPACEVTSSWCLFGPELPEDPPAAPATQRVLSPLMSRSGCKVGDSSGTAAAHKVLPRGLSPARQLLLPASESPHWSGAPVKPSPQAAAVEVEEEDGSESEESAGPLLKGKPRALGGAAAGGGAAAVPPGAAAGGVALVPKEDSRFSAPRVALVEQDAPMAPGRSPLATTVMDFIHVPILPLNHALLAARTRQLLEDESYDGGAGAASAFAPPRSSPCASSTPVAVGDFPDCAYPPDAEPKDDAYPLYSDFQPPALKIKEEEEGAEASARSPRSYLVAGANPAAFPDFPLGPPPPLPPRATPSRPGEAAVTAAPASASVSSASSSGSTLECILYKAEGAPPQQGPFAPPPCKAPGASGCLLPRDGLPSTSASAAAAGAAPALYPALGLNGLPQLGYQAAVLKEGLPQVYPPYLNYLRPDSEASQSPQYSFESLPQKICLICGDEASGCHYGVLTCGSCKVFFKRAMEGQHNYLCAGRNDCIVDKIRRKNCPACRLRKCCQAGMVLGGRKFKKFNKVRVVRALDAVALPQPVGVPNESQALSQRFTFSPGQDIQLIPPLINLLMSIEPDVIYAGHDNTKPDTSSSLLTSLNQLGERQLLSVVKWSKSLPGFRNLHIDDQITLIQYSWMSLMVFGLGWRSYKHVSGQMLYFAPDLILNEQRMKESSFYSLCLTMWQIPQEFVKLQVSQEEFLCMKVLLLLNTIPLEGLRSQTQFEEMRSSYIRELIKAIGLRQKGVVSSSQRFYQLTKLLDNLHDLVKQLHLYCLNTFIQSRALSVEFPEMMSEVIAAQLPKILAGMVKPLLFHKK

Rattus norvegicus [16] = assay: Androgenic activity in orchidectomized rat assessed as stimulation of prostate weight treated at 0.3 mg/kg, sc once daily for 14 days by Hershberger assay; assay type: organism-based, Prostate gland; set-up: dose 0.3 mg/kg, route subcutaneous; conditions: in vivo, 336 h
Rattus norvegicus [17] = assay: Bioavailability in Wistar rat at 0.5 mg/kg, sc; assay type: ADME, organism-based; conditions: in vivo
[18] = Tmax in Wistar rat at 0.5 mg/kg, sc; assay type: ADME, organism-based; set-up: dose 0.5 mg/kg, route subcutaneous; conditions: in vivo
Androgen receptor [19] = target: T2, Androgen receptor; conditions: c2c12

Row | SMILES | Drug uptake [1] | Emax [2] | logP [3] | EC50 (Androgen receptor [4]) [nM] | Jss (Zone of skin) [ug/cm2.hr] | solubility thermodynamic [5] [µg/mL] | permeability [6] | other results
1 | CCO[C@@H]1C(c2ccc(C#N)c(Cl)c2C)=NN2CC[C@H](O)[C@@H]12 | inactive | 98.3% | 2.4 | 1 | 0.9 | 250 (≈ 782 µM) | permeable | –
2 | C[C@]12CC[C@H]3[C@@H](CCC4=CC(=O)CC[C@@]43C)[C@@H]1CC[C@@H]2O [TESTOSTERONE] | inactive | – | – | – | 0.19 | 40 (≈ 139 µM) | permeable | –
3 | CCC(=O)O[C@H]1CC[C@H]2[C@@H]3CCC4=CC(=O)CC[C@]4(C)[C@H]3CC[C@]12C [TESTOSTERONE PROPIONATE] | – | – | – | – | – | – | – | ED50 (Rattus norvegicus [7]): 0.31 mg/kg; ED50 (Rattus norvegicus [8]): 0.29 mg/kg
4 | CO[C@@H]1C(c2ccc(C#N)c(Cl)c2C)=NN2CC(F)(F)C[C@@H]12 | Active | 100% | 3.2 | 0.3 | 0.06 | 10 (≈ 30.7 µM) | permeable | –
5 | CO[C@@H]1C(c2ccc(C#N)c(Cl)c2C)=NN2CC[C@H](O)[C@@H]12 | inactive | 97% | 2 | – | 2 | 1300 (≈ 4250 µM) | permeable | half-life [9]: 5.7 h; ED50 (Rattus norvegicus [7]): 2.73 mg/kg; IC50 (Estrogen receptor): > 1000 nM; AUC (Rattus norvegicus [10]): 670 ng·h/mL; Vd [11]: 4.6 L/kg; IC50 (Glucocorticoid receptor): > 1000 nM; AUC(0-inf) [12]: 708 ng·h/mL; IC50 (Androgen receptor [13]): 0.7 nM; Cmax [14]: 79 ng/mL; Activity (Rattus norvegicus [15]): Active; IC50 (Progesterone receptor): 700 nM; Activity (Rattus norvegicus [8]): Dose-dependent effect; ED50 (Rattus norvegicus [8]): 0.07 mg/kg; Activity (Rattus norvegicus [16]): Non-toxic; F (Rattus norvegicus [17]): 75%; Tmax [18]: 1.5 h
6 | Cc1c(C2=NN3CC[C@H](O)[C@H]3[C@@H]2OC(C)C)ccc(C#N)c1Cl | – | 102% | – | 4.5 | – | – | – | –
7 | CO[C@@H]1C(c2ccc(C#N)c(Cl)c2C)=NN2C[C@@H](O)C[C@@H]12 | – | inactive | – | – | – | – | – | EC50 (Androgen receptor [19]): Not Active
8 | CO[C@@H]1C(c2ccc(C#N)c(Cl)c2C)=NN2CC[C@H](F)[C@@H]12 | – | 93.5% | – | 1.5 | – | – | – | –
